One test deals with T1, SpTPC3 (Strongylocentrotus purpuratus, UniProt B8PXK0).
T1 construct: endogenous full-length protein immunoprecipitated with anti-SpTPC3 serum from solubilized egg membranes (S10P100 fraction); possibly homodimer; may carry associated proteins
T1 sequence (B8PXK0 1-840): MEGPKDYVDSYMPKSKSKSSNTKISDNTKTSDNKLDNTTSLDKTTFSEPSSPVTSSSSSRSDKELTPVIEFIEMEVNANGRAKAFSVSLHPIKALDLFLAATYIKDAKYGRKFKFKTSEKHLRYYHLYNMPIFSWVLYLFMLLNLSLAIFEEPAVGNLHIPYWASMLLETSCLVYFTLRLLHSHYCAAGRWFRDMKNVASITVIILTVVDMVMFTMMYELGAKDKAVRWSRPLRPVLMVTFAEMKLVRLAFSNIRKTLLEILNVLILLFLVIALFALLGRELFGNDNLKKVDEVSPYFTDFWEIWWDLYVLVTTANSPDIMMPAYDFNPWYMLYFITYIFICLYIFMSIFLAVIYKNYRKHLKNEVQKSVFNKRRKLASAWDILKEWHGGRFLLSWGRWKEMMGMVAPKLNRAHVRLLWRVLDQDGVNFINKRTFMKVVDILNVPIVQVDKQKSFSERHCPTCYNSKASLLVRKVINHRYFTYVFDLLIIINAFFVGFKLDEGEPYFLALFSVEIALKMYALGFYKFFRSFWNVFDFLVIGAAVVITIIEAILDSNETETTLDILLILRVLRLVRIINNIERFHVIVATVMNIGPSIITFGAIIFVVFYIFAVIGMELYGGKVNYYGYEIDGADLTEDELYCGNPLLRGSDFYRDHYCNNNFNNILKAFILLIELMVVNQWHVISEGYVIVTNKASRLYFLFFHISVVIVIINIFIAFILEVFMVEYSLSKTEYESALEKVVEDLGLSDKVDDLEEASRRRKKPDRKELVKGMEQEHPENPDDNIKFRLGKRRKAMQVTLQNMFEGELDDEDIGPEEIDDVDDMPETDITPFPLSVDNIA
Nature of the test: […]NAADP competition binding on immunoprecipitate. To be noted: competitor against [32P]NAADP; immunopurified native complex; K+-dependent irreversible binding.

Another test concerns the target T2, SpTPC1 (Strongylocentrotus purpuratus, UniProt B8PXJ8).
T2 construct: endogenous full-length protein immunoprecipitated with anti-SpTPC1 serum from solubilized egg membranes (S10P100 fraction); native complex, may carry associated proteins
T2 sequence (B8PXJ8 1-882): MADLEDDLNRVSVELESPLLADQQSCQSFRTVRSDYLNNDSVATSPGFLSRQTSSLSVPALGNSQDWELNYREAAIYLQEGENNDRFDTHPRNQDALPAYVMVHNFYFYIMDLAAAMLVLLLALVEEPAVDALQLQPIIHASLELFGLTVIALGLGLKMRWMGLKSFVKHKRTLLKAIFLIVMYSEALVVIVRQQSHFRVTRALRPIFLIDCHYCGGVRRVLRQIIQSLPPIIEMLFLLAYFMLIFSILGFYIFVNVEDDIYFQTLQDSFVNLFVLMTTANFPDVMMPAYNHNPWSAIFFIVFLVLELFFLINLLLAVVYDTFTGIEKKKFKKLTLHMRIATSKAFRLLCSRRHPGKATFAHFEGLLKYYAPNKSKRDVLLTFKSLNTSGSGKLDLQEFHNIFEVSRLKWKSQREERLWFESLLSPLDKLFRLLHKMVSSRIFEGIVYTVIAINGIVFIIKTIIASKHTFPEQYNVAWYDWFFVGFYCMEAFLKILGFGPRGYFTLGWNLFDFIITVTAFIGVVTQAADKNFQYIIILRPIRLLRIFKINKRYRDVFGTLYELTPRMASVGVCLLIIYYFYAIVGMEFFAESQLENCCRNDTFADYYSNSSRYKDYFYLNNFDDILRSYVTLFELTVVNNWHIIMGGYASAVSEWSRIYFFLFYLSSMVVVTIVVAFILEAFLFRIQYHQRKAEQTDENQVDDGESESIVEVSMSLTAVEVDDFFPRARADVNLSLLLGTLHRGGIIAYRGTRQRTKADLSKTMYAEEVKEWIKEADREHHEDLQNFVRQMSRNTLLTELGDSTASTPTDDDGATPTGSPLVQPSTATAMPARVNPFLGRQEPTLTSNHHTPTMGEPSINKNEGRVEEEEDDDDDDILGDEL
The description is as above. As to conditions: competitor against [32P]NAADP; immunopurified native complex; K+-dependent irreversible binding.

For orientation: IC50 means the concentration that gives 50% inhibition. Lower therefore signals greater potency.

The structures appear in SMILES notation.

As to `Nc1ncnc2c1ncn2[C@@H]1O[C@H](COP(=O)(O)OP(=O)(O)OC[C@H]2O[C@@H]([n+]3cccc(C(=O)O)c3)[C@H](O)[C@@H]2O)[C@@H](O)[C@H]1OP(=O)(O)O` [NAADP], the IC50 at SpTPC3 was 0.9 nM; on SpTPC1 it was 1.4 nM.

Values taken from paper PMC2861162, “Purified TPC Isoforms Form NAADP Receptors with Distinct Roles for Ca^2+ Signaling and Endolysosomal Trafficking” (Current Biology, 2010).
